Test results taken from patent US20120035169A1, “AEROSOL FORMULATION FOR THE INHALATION OF BETA-AGONISTS” (BOEHRINGER INGELHEIM INTERNATIONAL GMBH, priority 2004, published 2012).
Structures can show the parent of a compound that is named as a salt.

| melting point [°C] | SMILES |
| --- | --- |
| 278 to 280 | Cc1cc(CC(C)(C)NCC(O)c2cc(O)cc3c2OCC(=O)N3)ccc1F (centres unmarked) (as salt: hydrochloride) |
| 278 to 280 | Cc1cc(F)ccc1CC(C)(C)NCC(O)c1cc(O)cc2c1OCC(=O)N2 (centres unmarked) (as salt: hydrochloride) |
| 279 to 280 | CC(C)(Cc1ccc(F)cc1F)NCC(O)c1cc(O)cc2c1OCC(=O)N2 (centres unmarked) (as salt: hydrochloride) |
| 235 to 238 | Cc1cc(C)cc(CC(C)(C)NCC(O)c2cc(O)cc3c2OCC(=O)N3)c1 (centres unmarked) (as salt: hydrochloride) |
| 201 to 204 | CC(C)(Cc1ccc(OCCCC(=O)O)cc1)NCC(O)c1cc(O)cc2c1OCC(=O)N2 (centres unmarked) (as salt: salt) [Example 16, Acid addition salt of 4-(4-{2-[2-hydroxy-2-(6-hydroxy-3-oxo-3,4-dihydro-2H-benzo[1,4]oxazin-8-yl)-ethylamino]-2-methyl-propyl}-phenoxy)-butyric acid] |
